Tests used:
MDA-MB-468 = assay: Antiproliferative activity against human MDA-MB-468 cells expressing PHGDH assessed as reduction in cell viability measured for 72 hrs by CCK-8 assay; type: functional, cell-based; settings: MDA-MB-468, 72 h
[1] = Microsomal stability in mouse liver microsomes assessed as intrinsic clearance measured upto 60 mins by HPLC-MS/MS analysis; type: ADME, Microsome; settings: 1 h
[2] = Microsomal stability in mouse liver microsomes assessed as half life measured upto 60 mins by HPLC-MS/MS analysis; type: ADME, Microsome
[3] = Microsomal stability in rat liver microsomes assessed as intrinsic clearance measured upto 60 mins by HPLC-MS/MS analysis; type: ADME, Microsome; settings: 1 h
[4] = Microsomal stability in rat liver microsomes assessed as half life measured upto 60 mins by HPLC-MS/MS analysis; type: ADME, Microsome
[5] = biological target: T1, D-3-phosphoglycerate dehydrogenase (Homo sapiens, UniProt O43175); assay: Inhibition of PHGDH (unknown origin) preincubated for 30 mins followed by substrate addition and measured after 5 mins
T1 sequence (O43175 whole entry): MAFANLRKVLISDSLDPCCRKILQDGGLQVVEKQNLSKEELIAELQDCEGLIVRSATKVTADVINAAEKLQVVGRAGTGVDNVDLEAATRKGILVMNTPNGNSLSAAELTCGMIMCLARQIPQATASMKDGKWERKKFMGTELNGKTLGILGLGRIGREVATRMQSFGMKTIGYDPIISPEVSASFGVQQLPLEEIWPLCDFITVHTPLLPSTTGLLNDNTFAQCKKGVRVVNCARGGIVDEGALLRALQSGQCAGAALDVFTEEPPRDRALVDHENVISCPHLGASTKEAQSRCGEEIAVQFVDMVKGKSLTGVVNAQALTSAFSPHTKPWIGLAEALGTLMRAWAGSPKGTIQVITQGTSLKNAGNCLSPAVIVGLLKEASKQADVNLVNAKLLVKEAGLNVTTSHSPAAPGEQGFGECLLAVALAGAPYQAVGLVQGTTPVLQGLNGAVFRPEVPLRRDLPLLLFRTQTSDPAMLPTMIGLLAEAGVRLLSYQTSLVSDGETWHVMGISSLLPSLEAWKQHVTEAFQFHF

[6] = Microsomal stability in human liver microsomes assessed as half life measured upto 60 mins by HPLC-MS/MS analysis; type: ADME, Microsome
[7] = Microsomal stability in human liver microsomes assessed as intrinsic clearance measured upto 60 mins by HPLC-MS/MS analysis; type: ADME, Microsome; settings: 1 h
MCF-10A = assay: Antiproliferative activity against human MCF-10A cells assessed as reduction in cell viability measured for 72 hrs by CCK-8 assay; type: functional, cell-based
PC-9 [8] = assay: Antiproliferative activity against human PC-9 cells expressing PHGDH assessed as reduction in cell viability measured for 72 hrs by CCK-8 assay; type: functional, cell-based; settings: PC-9, 72 h
[9] = Observed clearance in ICR mouse at 1 mg/kg, iv measured for 0.05 to 24 hrs by UPLC-MS/MS analysis; type: ADME, organism-based; settings: in vivo, time 0.05-24 hrs
[10] = Tmax in ICR mouse at 3 mg/kg, po measured for 0.25 to 24 hrs by UPLC-MS/MS analysis; type: ADME, organism-based; settings: in vivo, time 0.25-24 hrs
[11] = Toxicity in BALB/c nude mouse xenografted with human PC-9 cells assessed as abnormalities in kidney at 25 mg/kg, ip administered every day for 31 days by H and E staining based assay; type: organism-based; settings: in vivo, 744 h, time 31 day
[12] = Toxicity in BALB/c nude mouse xenografted with human PC-9 cells assessed as abnormalities in lung at 25 mg/kg, ip administered every day for 31 days by H and E staining based assay; type: organism-based; settings: in vivo, 744 h, time 31 day
BT-20 = assay: Antiproliferative activity against human BT-20 cells expressing PHGDH assessed as reduction in cell viability measured for 72 hrs by CCK-8 assay; type: functional, cell-based; settings: BT-20, 72 h
[13] = Toxicity in BALB/c nude mouse xenografted with human PC-9 cells assessed as loss of body weight at 25 mg/kg, ip administered every day for 31 days; type: organism-based; settings: in vivo, 744 h, time 31 day
MCF7 = assay: Antiproliferative activity against human MCF7 cells assessed as reduction in cell viability measured for 72 hrs by CCK-8 assay; type: functional, cell-based; settings: MCF7, 72 h
[14] = Drug exposure in BALB/c nude mouse tumor at 50 mg/kg, ip measured for 0.5 to 4 hrs; type: ADME, organism-based; settings: in vivo, time 0.5-4 hrs
ZR-75-1 = assay: Antiproliferative activity against human ZR-75-1 cells assessed as reduction in cell viability measured for 72 hrs by CCK-8 assay; type: functional, cell-based; settings: ZR-75-1, 72 h
HCT-116 = assay: Antiproliferative activity against human HCT-116 cells expressing PHGDH assessed as reduction in cell viability measured for 72 hrs by CCK-8 assay; type: functional, cell-based; settings: HCT-116, 72 h
[15] = biological target: T1, D-3-phosphoglycerate dehydrogenase; assay: Competitive inhibition of PHGDH (unknown origin) assessed as inhibition constant using 3-PG as substrate preincubated for 30 mins followed by substrate addition and measured after 5 mins by Lineweaver-Burk plot analysis
[16] = AUClast in ICR mouse at 1 mg/kg, iv measured for 0.05 to 24 hrs by UPLC-MS/MS analysis; type: ADME, organism-based; design: time upper 24 hrs, dose 1 mg/kg, time lower 0.05 hrs, route iv; settings: in vivo
PC-9 [17] = assay: Antitumor activity against human PC-9 cells xenografted in BALB/c nude mouse assessed as tumor growth inhibition at 25 mg/kg, ip administered every day for 31 days by digital vernier caliper analysis; type: functional; settings: time 31 day
NCI-H1975 = assay: Antiproliferative activity against human NCI-H1975 cells expressing PHGDH assessed as reduction in cell viability measured for 72 hrs by CCK-8 assay; type: functional, cell-based; settings: NCI-H1975, 72 h
[18] = biological target: T1, D-3-phosphoglycerate dehydrogenase; assay: Competitive inhibition of PHGDH (unknown origin) assessed as inhibition constant using NAD+ as substrate preincubated for 30 mins followed by substrate addition and measured after 5 mins by Lineweaver-Burk plot analysis
PC-9 [19] = assay: Antitumor activity against human PC-9 cells xenografted in BALB/c nude mouse assessed as tumor growth inhibition at 12.5 mg/kg, ip administered every day for 31 days by digital vernier caliper analysis; type: functional; settings: time 31 day
[20] = biological target: T1, D-3-phosphoglycerate dehydrogenase; assay: Binding affinity to his-tagged PHGDH ([…] residues) (unknown origin) assessed as dissociation constant by SPR analysis
PANC-1 = assay: Antiproliferative activity against human PANC-1 cells assessed as reduction in cell viability measured for 72 hrs by CCK-8 assay; type: functional, cell-based; settings: PANC-1, 72 h
[21] = biological target: T1, D-3-phosphoglycerate dehydrogenase; assay: Binding affinity to PHGDH (unknown origin) assessed as dissociation constant incubated for 60 mins by microscale thermophoresis analysis
HCC827 = assay: Antiproliferative activity against human HCC827 cells expressing PHGDH assessed as reduction in cell viability measured for 72 hrs by CCK-8 assay; type: functional, cell-based; settings: HCC827, 72 h
[22] = Half life in ICR mouse at 1 mg/kg, iv measured for 0.05 to 24 hrs by UPLC-MS/MS analysis; type: ADME, organism-based; settings: in vivo, time 0.05-24 hrs
[23] = AUClast in ICR mouse at 3 mg/kg, po measured for 0.25 to 24 hrs by UPLC-MS/MS analysis; type: ADME, organism-based; design: dose 3 mg/kg, time 0.25-24 hrs, route po; settings: in vivo
[24] = biological target: T1, D-3-phosphoglycerate dehydrogenase; assay: Inhibition of wild type PHGDH (unknown origin) preincubated for 30 mins followed by substrate addition and measured after 5 mins
[25] = Oral bioavailability in ICR mouse at 3 mg/kg measured for 0.25 to 24 hrs by UPLC-MS/MS analysis; type: ADME, organism-based; settings: in vivo, time 0.25-24 hrs
[26] = Half life in ICR mouse at 3 mg/kg, po measured for 0.25 to 24 hrs by UPLC-MS/MS analysis; type: ADME, organism-based; settings: in vivo, time 0.25-24 hrs
[27] = Toxicity in BALB/c nude mouse xenografted with human PC-9 cells assessed as abnormalities in liver at 25 mg/kg, ip administered every day for 31 days by H and E staining based assay; type: organism-based; settings: in vivo, 744 h, time 31 day
NCI-H23 = assay: Antiproliferative activity against human NCI-H23 cells assessed as reduction in cell viability measured for 72 hrs by CCK-8 assay; type: functional, cell-based; settings: NCI-H23, 72 h
[28] = Cmax in ICR mouse at 3 mg/kg, po measured for 0.25 to 24 hrs by UPLC-MS/MS analysis; type: ADME, organism-based; design: dose 3 mg/kg, time 0.25-24 hrs, route po; settings: in vivo
MDA-MB-231 = assay: Antiproliferative activity against human MDA-MB-231 cells assessed as reduction in cell viability measured for 72 hrs by CCK-8 assay; type: functional, cell-based; settings: MDA-MB-231, 72 h
[29] = biological target: D-3-phosphoglycerate dehydrogenase (Homo sapiens, UniProt O43175, D175A); assay: Inhibition of PHGDH D175A mutant (unknown origin) preincubated for 30 mins followed by substrate addition and measured after 5 mins
[30] = Drug exposure in BALB/c nude mouse plasma at 25 mg/kg, ip measured for 0.5 to 4 hrs; type: ADME, organism-based; settings: in vivo, time 0.5-4 hrs
[31] = substrate: CC(=O)c1cccc(NS(=O)(=O)c2ccc(C(=O)Nc3nc(-c4cccc(F)c4)cs3)cc2)c1; settings: Homo sapiens; dose 12.5 µM, time 35.0 min
[32] = substrate: CC(=O)c1cccc(NS(=O)(=O)c2ccc(C(=O)Nc3nc(-c4cccc(F)c4)cs3)cc2)c1; settings: Homo sapiens; dose 25.0 µM, time 35.0 min
[33] = substrate: CC(=O)c1cccc(NS(=O)(=O)c2ccc(C(=O)Nc3nc(-c4cccc(F)c4)cs3)cc2)c1; settings: Homo sapiens; dose 3.1 µM, time 35.0 min
[34] = substrate: CC(=O)c1cccc(NS(=O)(=O)c2ccc(C(=O)Nc3nc(-c4cccc(F)c4)cs3)cc2)c1; settings: Homo sapiens; dose 12.5 µM, time 35.0 min; remark: listed apart in the source
[35] = substrate: CC(=O)c1cccc(NS(=O)(=O)c2ccc(C(=O)Nc3nc(-c4cccc(F)c4)cs3)cc2)c1; settings: Homo sapiens; dose 6.3 µM, time 35.0 min
[36] = substrate: CC(=O)c1cccc(NS(=O)(=O)c2ccc(C(=O)Nc3nc(-c4cccc(F)c4)cs3)cc2)c1; settings: Homo sapiens; dose 6.3 µM, time 35.0 min; remark: listed apart in the source
[37] = substrate: CC(=O)c1cccc(NS(=O)(=O)c2ccc(C(=O)Nc3nc(-c4cccc(F)c4)cs3)cc2)c1; settings: Homo sapiens; dose 25.0 µM, time 35.0 min; remark: listed apart in the source

Sequence of D-3-phosphoglycerate dehydrogenase (Homo sapiens, UniProt O43175, D175A) (O43175 2-533 D175A limits assumed): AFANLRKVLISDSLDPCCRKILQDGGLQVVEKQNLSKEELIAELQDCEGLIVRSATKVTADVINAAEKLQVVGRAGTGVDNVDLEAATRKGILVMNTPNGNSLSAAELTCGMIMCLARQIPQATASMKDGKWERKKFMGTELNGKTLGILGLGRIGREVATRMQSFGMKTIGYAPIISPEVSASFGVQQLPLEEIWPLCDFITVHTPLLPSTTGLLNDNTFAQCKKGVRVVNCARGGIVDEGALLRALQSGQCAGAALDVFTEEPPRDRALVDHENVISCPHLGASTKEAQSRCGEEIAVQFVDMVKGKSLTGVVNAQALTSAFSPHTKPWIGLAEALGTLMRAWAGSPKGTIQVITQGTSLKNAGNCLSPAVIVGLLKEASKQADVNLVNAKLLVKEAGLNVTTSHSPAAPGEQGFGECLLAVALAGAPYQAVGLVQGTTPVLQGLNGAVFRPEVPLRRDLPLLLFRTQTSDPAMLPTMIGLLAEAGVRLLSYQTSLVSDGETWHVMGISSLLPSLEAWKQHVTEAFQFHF

COc1cccc(-c2csc(NC(=O)c3ccc(S(=O)(=O)Nc4cccc(C(C)=O)c4)cc3)n2)c1
IC50 (MDA-MB-468): 4.8 µM | CLH [1]: 2471.9 mL/min/g | half-life [2]: 0.85 min | CLH [3]: 2500.2 mL/min/g | half-life [4]: 0.84 min | IC50 [5]: 4.8 µM | half-life [6]: 0.85 min | CLH [7]: 2485.8 mL/min/g | IC50 (MCF-10A): 100 µM

CC(=O)c1cccc(NS(=O)(=O)c2ccc(C(=O)Nc3nc(-c4cccc(F)c4)cs3)cc2)c1
IC50 (PC-9 [8]): 3.5 µM | clearance [9]: 0.48 mL/min/kg | Tmax [10]: 3.33 h | Activity [11]: Non-Toxic | IC50 (MDA-MB-468): 5.3 µM | Activity [12]: Non-Toxic | IC50 (BT-20): 5.3 µM | Activity [13]: Non-Toxic | IC50 (MCF7): 39.2 µM | CLH [1]: 24.1 mL/min/g | Drug uptake [14]: Active | half-life [2]: 87.2 min | IC50 (ZR-75-1): 38.3 µM | IC50 (HCT-116): 9.6 µM | Ki [15]: 14.9 µM | AUClast [16]: 38358 ng·mL·h | TGI (PC-9 [17]): 68.9% | CLH [3]: 56.6 mL/min/g | half-life [4]: 37.1 min | IC50 (NCI-H1975): 6.2 µM | Ki [18]: 15.2 µM | TGI (PC-9 [19]): 41.4% | IC50 [5]: 2.8 µM | Kd [20]: 2480 nM | half-life [6]: 106 min | IC50 (PANC-1): 36.6 µM | Kd [21]: 2330 nM | IC50 (HCC827): 21.6 µM | CLH [7]: 19.8 mL/min/g | half-life [22]: 296 min | AUClast [23]: 94386 ng·mL·h | IC50 [24]: 2800 nM | bioavailability [25]: 82% | half-life [26]: 284 min | IC50 (MCF-10A): 52.9 µM | Activity [27]: Non-Toxic | IC50 (NCI-H23): 28.6 µM | Cmax [28]: 8840 ng/mL | IC50 (MDA-MB-231): 37.1 µM | IC50 [29]: > 50 µM | concentration [30]: 30.8 µM

CC(=O)c1cccc(NS(=O)(=O)c2ccc(C(=O)Nc3nc(-c4cccc(O)c4)cs3)cc2)c1
IC50 (PC-9 [8]): > 100 µM | IC50 (MDA-MB-468): 69.3 µM | IC50 (BT-20): 69.3 µM | IC50 (HCT-116): 84.7 µM | IC50 (NCI-H1975): 89.7 µM | IC50 (HCC827): 55.7 µM

B1: D-3-phosphoglycerate dehydrogenase (Homo sapiens), O43175 (protein)
chain: T1 sequence (O43175 whole entry)
Km [31]: 64 µM | Km [32]: 72.9 µM | Km [33]: 33.4 µM | Km [34]: 495 µM | Km [35]: 510 µM | Km [36]: 51.6 µM | Km [37]: 448 µM

Reference: ChEMBL document CHEMBL5316299, “Discovery of Novel Drug-like PHGDH Inhibitors to Disrupt Serine Biosynthesis for Cancer Therapy” (J Med Chem, 2023)
